Data as given in patent US10464947B2 (Incyte Corporation, priority 2013, dated 2019).
Counter-ions that a name gives are not always drawn. Like-named read-outs stand apart in the source and are kept apart here.

Experiments:
[1] = target: BRD4-BD1 (Homo sapiens (Human), UniProt O60885); assay: BRD4 AlphaScreen Assay (Example A1), BRD4-BD1; assay type: binding; conditions: H4Ac4 peptide, 3.8 nM BRD4-BD1, read-out: BRD4 BD-1 enzyme IC50
Protocol: (§1) BRD4-BD1 and BRD4-BD2 assays were conducted in white 384-well polystyrene plate in a final volume of 20 μL for BD1 and 40 μL for BD2. Inhibitors were first serially diluted in DMSO and added to the plate wells before the addition of other reaction components. […] After plate sealing, the plate was incubated in the dark at room temperature for 75 min. before reading on a PHERAstar FS plate reader (BMG Labtech). IC50 determination was performed by fitting the curve of percent control activity versus the log of the inhibitor concentration using the GraphPad Prism 5.0 software.

[2] = target: BRD4-BD2 (Homo sapiens (Human), UniProt O60885); assay: BRD4 AlphaScreen Assay (Example A1), BRD4-BD2; assay type: binding; conditions: H4Ac4 peptide, 20 nM BRD4-BD2, read-out: BRD4 BD-2 enzyme IC50
Protocol: as §1

[3] = system: KMS.12.BM cells; assay: KMS.12.BM Cell Viability Assay (Example B1); assay type: cell-based, human; conditions: 3 days, Cell Titer-GLO, read-out: KMS cellular IC50
Summary of the method: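 KMS.12.BM human myeloma cells, 5000 cells/well in RPMI with 10% FBS, exposed to a compound concentration range for 3 days. Viable cells measured by ATP-based Cell Titer-GLO luminescence after 10 min at room temperature.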

[4] = system: C-myc in KMS.12.BM cells; assay: KMS.12.BM C-Myc ELISA Assay (Example C1); assay type: cell-based; conditions: Homo sapiens, 2 h
Protocol: KMS.12.BM C-Myc ELISA Assay
KMS.12.BM cell line (human myeloma) was purchased from JCRB (Osaka, Japan) and maintained in RPMI with 10% FBS culture medium. To measure the C-myc inhibitory activity of the compounds, the KMS.12.BM cells are plated in the RPMI culture medium at 75000 cells/well/per 200 μL into a 96-well flat bottom polystyrene tissue culture plate (Corning through VWR, NJ), in the presence or absence of a concentration range of test compounds. After 2 h, cells are pelleted and lysed with Cell Extraction Buffer (BioSource, Carlsbad, Calif.) in the presence of protease inhibitors (Life Technologies, Grand Island, N.Y. and Sigma, St Louis, Mo.). Clarified lyses are tested in a C-myc commercial ELISA (Life Technologies, Grand Island, N.Y.).

Row | IC50 [4] | SMILES | IC50 ([3]; Homo sapiens, 72 h) | further results
1 | < 1000 nM | Cc1noc(C)c1-c1ccc2[nH]c(=O)n3c2c1OCC3c1ccccc1 (single isomer, unassigned) [Example 1A, 7-(3,5-Dimethylisoxazol-4-yl)-4-phenyl-4,5-dihydroimidazo[1,5,4-de][1,4]benzoxazin-2(1H)-one] | – | IC50 [1]: ≤ 100 nM; IC50 [2]: ≤ 100 nM; IC50 [3]: < 1000 nM
2 | < 1000 nM | COc1ccccc1C1COc2c(-c3c(C)noc3C)ccc3[nH]c(=O)n1c23 (stereo not drawn) [Example 7, 7-(3,5-Dimethylisoxazol-4-yl)-4-(2-methoxyphenyl)-4,5-dihydroimidazo[1,5,4-de][1,4]benzoxazin-2(1H)-one] | < 1000 nM | –
3 | – | Cc1noc(C)c1-c1ccc2[nH]c(=O)n3c2c1OCC3c1ccccc1 (single isomer, unassigned) [Example 1B, 7-(3,5-Dimethylisoxazol-4-yl)-4-phenyl-4,5-dihydroimidazo[1,5,4-de][1,4]benzoxazin-2(1H)-one] | – | IC50 [1]: 100 to 1000 nM; IC50 [2]: 100 to 1000 nM
4 | < 1000 nM | CCNc1nc2ccc(-c3c(C)noc3C)c3c2n1C(c1ccccc1)CO3 (stereo not drawn) [Example 27, 7-(3,5-Dimethylisoxazol-4-yl)-N-ethyl-4-phenyl-4,5-dihydroimidazo[1,5,4-de][1,4]benzoxazin-2-amine] | < 1000 nM | –
5 | < 1000 nM | COCC(=O)NCc1cc(-c2c(C)noc2C)c2c3c1[nH]c(=O)n3[C@@H](c1ccccn1)CO2 [Example 140, N-{[(4S)-7-(3,5-Dimethylisoxazol-4-yl)-2-oxo-4-pyridin-2-yl-1,2,4,5-tetrahydroimidazo[1,5,4-de][1,4]benzoxazin-9-yl]methyl}-2-methoxyacetamide] | < 1000 nM | –
6 | < 1000 nM | Cc1noc(C)c1-c1ccc2nc(N(C)CCO)n3c2c1OCC3c1ccccc1 (stereo not drawn) [Example 34, 2-[[7-(3,5-Dimethylisoxazol-4-yl)-4-phenyl-4,5-dihydroimidazo[1,5,4-de][1,4]benzoxazin-2-yl](methyl)amino]ethanol] | < 1000 nM | –
7 | < 1000 nM | Cc1noc(C)c1-c1ccc2nc(NCCO)n3c2c1OCC3c1ccccc1 (stereo not drawn) [Example 29, 2-{[7-(3,5-Dimethylisoxazol-4-yl)-4-phenyl-4,5-dihydroimidazo[1,5,4-de][1,4]benzoxazin-2-yl]amino}ethanol] | < 1000 nM | –
8 | < 1000 nM | Cc1noc(C)c1-c1cc(CNS(C)(=O)=O)c2[nH]c(=O)n3c2c1OC[C@@H]3c1ccccn1 [Example 141, N-{[(4S)-7-(3,5-Dimethylisoxazol-4-yl)-2-oxo-4-pyridin-2-yl-1,2,4,5-tetrahydroimidazo[1,5,4-de][1,4]benzoxazin-9-yl]methyl}methanesulfonamide] | < 1000 nM | –
9 | < 1000 nM | Cc1noc(C)c1-c1ccc2[nH]c(=O)n3c2c1OC(C)C3c1ccccc1 (stereo not drawn) [Example 3, 7-(3,5-Dimethylisoxazol-4-yl)-5-methyl-4-phenyl-4,5-dihydroimidazo[1,5,4-de][1,4]benzoxazin-2(1H)-one] | < 1000 nM | –
10 | < 1000 nM | Cc1noc(C)c1-c1ccc2[nH]c(=O)n3c2c1OCC3c1cccnc1C(=O)NC1CC1 (single isomer, unassigned) [Example 134, N-Cyclopropyl-3-[7-(3,5-dimethylisoxazol-4-yl)-2-oxo-1,2,4,5-tetrahydroimidazo[1,5,4-de][1,4]benzoxazin-4-yl]pyridine-2-carboxamide] | < 1000 nM | –
11 | < 1000 nM | Cc1noc(C)c1-c1cc(C(C)O)c2[nH]c(=O)n3c2c1OC[C@@H]3c1ccccn1 (single isomer, unassigned) [Example 144A] | < 1000 nM | –
12 | < 1000 nM | CC(=O)N1CCC(c2nc3ccc(-c4c(C)noc4C)c4c3n2[C@@H](c2ccccn2)CO4)CC1 [Example 109, (4S)-2-(1-Acetylpiperidin-4-yl)-7-(3,5-dimethylisoxazol-4-yl)-4-pyridin-2-yl-4,5-dihydroimidazo[1,5,4-de][1,4]benzoxazine] | < 1000 nM | –
13 | < 1000 nM | Cc1noc(C)c1-c1ccc2nc(C)n3c2c1OCC3c1ccccc1 (stereo not drawn) [Example 9, 7-(3,5-Dimethylisoxazol-4-yl)-2-methyl-4-phenyl-4,5-dihydroimidazo[1,5,4-de][1,4]benzoxazine] | < 1000 nM | –
14 | < 1000 nM | CC(=O)NCc1cc(-c2c(C)noc2C)c2c3c1[nH]c(=O)n3[C@@H](c1ccccn1)CO2 [Example 138, N-{[(4S)-7-(3,5-Dimethylisoxazol-4-yl)-2-oxo-4-pyridin-2-yl-1,2,4,5-tetrahydroimidazo[1,5,4-de][1,4]benzoxazin-9-yl]methyl}acetamide trifluoroacetate] | < 1000 nM | –
15 | < 1000 nM | Cc1noc(C)c1-c1ccc2c3c1OCC(c1ccccc1)n3c(=O)n2CCN1CCOCC1 (stereo not drawn) [Example 10, 7-(3,5-Dimethylisoxazol-4-yl)-1-(2-morpholin-4-ylethyl)-4-phenyl-4,5-dihydroimidazo[1,5,4-de][1,4]benzoxazin-2(1H)-one] | – | IC50 ([3]; Homo sapiens, KMS-12-BM, 72 h): < 1000 nM
16 | < 1000 nM | Cc1noc(C)c1-c1ccc2[nH]c(=O)n3c2c1OCC3c1cccnc1C(N)=O (stereo not drawn) [Example 127, 3-[7-(3,5-Dimethylisoxazol-4-yl)-2-oxo-1,2,4,5-tetrahydroimidazo[1,5,4-de][1,4]benzoxazin-4-yl]pyridine-2-carboxamide trifluoroacetate] | < 1000 nM | –
17 | < 1000 nM | Cc1noc(C)c1-c1ccc2[nH]c(=O)n3c2c1OCC3c1nccs1 (stereo not drawn) [Example 21, 7-(3,5-Dimethylisoxazol-4-yl)-4-(1,3-thiazol-2-yl)-4,5-dihydroimidazo[1,5,4-de][1,4]benzoxazin-2(1H)-one] | < 1000 nM | –
18 | < 1000 nM | Cc1noc(C)c1-c1ccc2[nH]c(=O)n3c2c1OCC3c1ccccc1OCC(=O)NCCO (stereo not drawn) [Example 50, 2-{2-[7-(3,5-Dimethylisoxazol-4-yl)-2-oxo-1,2,4,5-tetrahydroimidazo[1,5,4-de][1,4]benzoxazin-4-yl]phenoxy}-N-(2-hydroxyethyl)acetamide] | < 1000 nM | –
19 | < 1000 nM | Cc1noc(C)c1-c1ccc2nc(C(=O)N3CCOCC3)n3c2c1OC[C@@H]3c1ccccn1 [Example 94, (4S)-7-(3,5-Dimethylisoxazol-4-yl)-2-(morpholin-4-ylcarbonyl)-4-pyridin-2-yl-4,5-dihydroimidazo[1,5,4-de][1,4]benzoxazine] | < 1000 nM | –
20 | < 1000 nM | Cc1noc(C)c1-c1ccc2[nH]c(=O)n3c2c1OCC3c1ccc(C#N)cc1 (stereo not drawn) [Example 4, 4-[7-(3,5-Dimethylisoxazol-4-yl)-2-oxo-1,2,4,5-tetrahydroimidazo[1,5,4-de][1,4]benzoxazin-4-yl]benzonitrile] | < 1000 nM | –
21 | < 1000 nM | Cc1noc(C)c1-c1ccc2nc(N(C)C)n3c2c1OCC3c1ccccc1 (stereo not drawn) [Example 28, 7-(3,5-Dimethylisoxazol-4-yl)-N,N-dimethyl-4-phenyl-4,5-dihydroimidazo[1,5,4-de][1,4]benzoxazin-2-amine] | < 1000 nM | –
22 | < 1000 nM | Cc1noc(C)c1-c1ccc2[nH]c(=O)n3c2c1OCC3c1ccc(F)cc1F (stereo not drawn) [Example 8, 7-(3,5-Dimethylisoxazol-4-yl)-4-(2,4-difluorophenyl)-4,5-dihydroimidazo[1,5,4-de][1,4]benzoxazin-2(1H)-one] | < 1000 nM | –
23 | < 1000 nM | Cc1noc(C)c1-c1ccc2nc(NCC(C)O)n3c2c1OCC3c1ccccc1 (stereo not drawn) [Example 32, 1-{[7-(3,5-Dimethylisoxazol-4-yl)-4-phenyl-4,5-dihydroimidazo[1,5,4-de][1,4]benzoxazin-2-yl]amino}propan-2-ol] | < 1000 nM | –
24 | < 1000 nM | CC(=O)N1CC=C(c2nc3ccc(-c4c(C)noc4C)c4c3n2[C@@H](c2ccccn2)CO4)CC1 [Example 110, (4S)-2-(1-acetyl-1,2,3,6-tetrahydropyridin-4-yl)-7-(3,5-dimethylisoxazol-4-yl)-4-pyridin-2-yl-4,5-dihydroimidazo[1,5,4-de][1,4]benzoxazine] | < 1000 nM | –
25 | < 1000 nM | Cc1noc(C)c1-c1ccc2[nH]c(=O)n3c2c1OCC3c1cccnc1 (stereo not drawn) [Example 5, 7-(3,5-Dimethylisoxazol-4-yl)-4-pyridin-3-yl-4,5-dihydroimidazo[1,5,4-de][1,4]benzoxazin-2(1H)-one] | < 1000 nM | –
26 | < 1000 nM | Cc1noc(C)c1-c1ccc2[nH]c(=O)n3c2c1OCC3c1cccnc1CN (stereo not drawn) [Example 130, 4-[2-(Aminomethyl)pyridin-3-yl]-7-(3,5-dimethylisoxazol-4-yl)-4,5-dihydroimidazo[1,5,4-de][1,4]benzoxazin-2(1H)-one bis(trifluoroacetate)] | < 1000 nM | –
